From ChEMBL document CHEMBL3808336, “Pyrazolylbenzo[d]imidazoles as new potent and selective inhibitors of carbonic anhydrase isoforms hCA IX and XII” (Bioorg Med Chem, 2016)

Columns and labels:
Carbonic anhydrase 1 = Carbonic anhydrase 1 (Homo sapiens, UniProt P00915); assay: Inhibition of recombinant human carbonic anhydrase 1 preincubated for 15 min to 72 hrs by stopped flow CO2 hydrase assay
Carbonic anhydrase 2 = Carbonic anhydrase 2 (Homo sapiens, UniProt P00918); assay: Inhibition of recombinant human carbonic anhydrase 2 preincubated for 15 min to 72 hrs by stopped flow CO2 hydrase assay
Carbonic anhydrase 9 = Carbonic anhydrase 9 (Homo sapiens, UniProt Q16790); assay: Inhibition of recombinant human carbonic anhydrase 9 preincubated for 15 min to 72 hrs by stopped flow CO2 hydrase assay

Carbonic anhydrase 1, sequence (P00915 whole entry): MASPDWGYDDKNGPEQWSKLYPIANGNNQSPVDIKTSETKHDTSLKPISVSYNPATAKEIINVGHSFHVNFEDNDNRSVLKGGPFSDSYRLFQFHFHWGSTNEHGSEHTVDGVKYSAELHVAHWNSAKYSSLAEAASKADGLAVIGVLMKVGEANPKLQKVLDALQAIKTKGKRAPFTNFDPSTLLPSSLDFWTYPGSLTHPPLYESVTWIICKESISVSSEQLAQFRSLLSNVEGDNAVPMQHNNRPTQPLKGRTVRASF

SMILES | Ki (Carbonic anhydrase 1) | Ki (Carbonic anhydrase 2) | Ki (Carbonic anhydrase 9)
Fc1ccc(-c2nn(-c3ccccc3)cc2-c2nc3ccccc3[nH]2)cc1 | > 40 µM | > 40 µM | 
COc1ccc(-c2nn(-c3ccccc3)cc2-c2nc3ccccc3[nH]2)cc1 | > 40 µM | > 40 µM | 48.7 nM
NS(=O)(=O)c1ccc(-n2cc(-c3nc4ccccc4[nH]3)c(-c3ccccc3)n2)cc1 |  |  | 24.9 nM
NS(=O)(=O)c1ccc(-n2cc(-c3nc4ccccc4[nH]3)c(-c3ccc(Br)cc3)n2)cc1 |  |  | 641 nM
Cc1ccc(-c2nn(-c3ccccc3)cc2-c2nc3ccccc3[nH]2)cc1 | > 40 µM | > 40 µM | 23.3 nM

More lines, now with the values ahead:

Ki (Carbonic anhydrase 1) | Ki (Carbonic anhydrase 2) | Ki (Carbonic anhydrase 9) | SMILES
> 40 µM | > 40 µM | 55.9 nM | c1ccc(-c2nn(-c3ccccc3)cc2-c2nc3ccccc3[nH]2)cc1
> 40 µM | > 40 µM | 7.5 nM | Clc1ccc(-c2nn(-c3ccccc3)cc2-c2nc3ccccc3[nH]2)cc1
 |  | 70.2 nM | NS(=O)(=O)c1ccc(-n2cc(-c3nc4ccccc4[nH]3)c(-c3ccc(Cl)cc3)n2)cc1
 |  | 74.7 nM | NS(=O)(=O)c1ccc(-n2cc(-c3nc4ccccc4[nH]3)c(-c3ccc(F)cc3)n2)cc1
 | > 40 µM | 55.1 nM | Brc1ccc(-c2nn(-c3ccccc3)cc2-c2nc3ccccc3[nH]2)cc1
 |  | 554 nM | COc1ccc(-c2nn(-c3ccc(S(N)(=O)=O)cc3)cc2-c2nc3ccccc3[nH]2)cc1
